{"source": "patent US20170014487A1", "about": "“Method for treating ocular inflammation” (THE TRUSTEES OF COLUMBIA UNIVERSITY IN THE CITY OF NEW YORK, priority 2014, published 2017)", "tested_on": "ICAM-1", "assay": "Western blot of TNF-α-induced ICAM-1 expression in SV40-HCEC cells", "type": "cell-based, human", "conditions": "1-μM secretin", "experimental": "Experiments were conducted to set up an in vitro model for dry eye syndrome, using cell cultures of immortalized human cells from the cornea or conjunctiva using the SV40-HCEC corneal cell line of SV40 virus-immortalized corneal cells (12). SV40-HCEC cells were shown using immunofluorescence of anti-oxytocin receptor antibodies to contain oxytocin receptors in the plasma membrane (FIG. 4A, oxytocin receptor fluorescence is in red [top panel]; blue represents nuclear staining with DAPI stain [bottom panel]), consistent with the results showing its presence in rodent conjunctiva and cornea. Moreover, the presence of secretin receptors in SV40HCEC cells was shown using Western blot (FIG. 4B, the presence of secretin receptor migrating at the expected size [arrow]). M: Marker, S: Sample/secretin receptor. The lower band in the sample lane represents degradation product.\nA Western blot-based assay was developed to assess for the role of oxytocin and secretin in dry eye syndrome in vitro. The expression of the […] ICAM-1 in SV40-HCEC cells was induced by adding the pro-inflammatory cytokine TNF-α [13]. In vivo, ICAM-1 acts to recruit neutrophils to sites of inflammation, and thus acts as a surrogate for inflammation in vitro."}
{"substance": "secretin: neuropeptide; endocrine hormone of the glucagon family, commercially available as SecreFlo", "values": [{"measurement": "Reduction of rate of accumulation of ICAM-1", "value": "about two-fold"}]}
